# Data taken from patent US20230075368A1, “IDENTIFICATION OF AN EGFR-BIN3 PATHWAY THAT ACTIVELY SUPPRESSES INVASION AND REDUCES TUMOR SIZE IN GLIOBLASTOMA” (The United States Govemment as represented by the …, priority 2020, published 2023).
# Tests used:
# STAT1 = assay: Western blot of pSTAT1 and STAT1; type: cell-based, human; details: tofacitinib 1 μM, 24 hours; GBM12 and GBM6
# Method: (§1) Mayo PDX cells were serum starved overnight. Following treatment for specific time, cells were harvested and lysed. The human glioblastoma tissues were ground in liquid nitrogen and then were lysed. […] TGFα antibody was from R&D system.
# (§2) . . . […] A similar experiment was performed in GBM6 (FIG. 18F). […] The Western blot images are representative of three independent biological replicates. Actin served as loading control. Data are represented as mean±SEM from three independent experiments. *P<0.05, **P<0.01, ***P<0.001, unpaired two-tailed t-test.
# HB-EGF = assay: ELISA for HB-EGF in supernatants; type: cell-based, human; details: tofacitinib 1 μM, 72 hours; GBM12 and GBM6
# Method: To determine EGFR ligands in medium, cells were serum starved for 48 hours, supernatants were collected and concentrated 5- to 10-fold with Pierce protein concentrator (ThermoFisher). HB-EGF, TGFα and EGF protein concentration in supernatant and tumor tissue extracts was determined by ELISA using the corresponding commercial HB-EGF, TGFα and EGF protein detection kits (ThermoFisher) per the manufacturer's instructions.
# STAT3 = assay: Western blot of pSTAT3 and STAT3; type: cell-based, human; details: tofacitinib 1 μM, 24 hours; GBM12 and GBM6
# Method: as §1, §2
# [1] = test system: orthotopic glioblastoma tumors (Mayo PDXs); assay: Orthotopic glioblastoma xenotransplant model treated with tofacitinib; type: in vivo, mice
# Method: 4 to 6 weeks old female athymic nude mice were purchased from Charles River Laboratories. Mayo PDXs were injected into the right corpus striatum of the brains of 6-8 week-old nude mice using a stereotactic frame. […] Kaplan-Maier survival curves were calculated using GraphPad Prism 7.0 software. Alzet Osmotic pumps were installed for brain delivery of EGF or vehicle in tumor bearing mice. To monitor the mice with orthotropic xenografts, MRI was performed at the Mouse MRI Core, Advanced Imaging Research Center, at UT Southwestern.
# Knockdown efficiency of HB-EGF in GBM39 control shRNA (GBM39shCtrl) and HB-EGF shRNA (GBM39shHB-EGF_1, GBM39shHB-EGF_2) clones was confirmed by ELISA (FIG. 21I). […] The Western blot images are representative of three independent biological replicates. Actin served as loading control. Scale bars: […]. Data are represented as mean±SEM from three independent experiments. ***P<0.001, […], n.s. not significant, unpaired two-tailed t-test.
# GBM12 = assay: Cignal 45-Pathway Reporter Array; type: cell-based, human; details: tofacitinib 1 μM, 24 hours
# GBM12 and GBM6 cells = assay: Scratch-wound assay; type: cell-based, human; details: EGF 50 ng/ml, 24 hours
# Method: Cells were cultured in 6 well plate until they reached around 100% confluence. A scratch wound was produced on the monolayer using a sterile 200 ul pipette tip. The cell cultured with serum free DMEM containing EGF (50 ng/ml) or vehicle control. Images of wound were captured 0 and 24 hours after scratch generation.
# Referring to FIG. 4A-D, an analysis of glioma cell migration by in vitro scratch assays is shown. […] Data are represented as mean±SEM from three independent experiments. ** P<0.01, unpaired two-tailed t-test.
# [2] = test system: U251MG and U87MG cell lines; assay: Matrigel invasion assay in established GBM lines; type: cell-based, human; details: for cell invasion: EGF 50 ng/ml
# Method: Invasion status of cells was tested with Matrigel Boyden chamber assays (Fisher). 1×10^5 cells were plated on BD BioCoat Matrigel invasion chambers. 24 hours after treatment with drugs, invaded cells were stained with the HEMA-3 kit (Fisher). Invaded cells were counted in 4-5 random fields.
# Referring to FIG. 6A-E, EGF inhibits EGFR overexpression induced cell invasion. […] Tetracycline induced EGFR overexpression was confirmed by Western blotting (FIG. 6E). The Western blot images are representative of three independent biological replicates. Actin served as loading control. Data are represented as mean±SEM from three independent experiments. **P<0.01, ***P<0.001, n.s. not significant, unpaired two-tailed t-test.
# glioma cells = details: Ramnarain et al. 2006, cited from earlier work
# Mayo PDX cells = assay: Matrigel invasion assay; type: cell-based, human; details: low-dose EGF (5 ng/ml), 24 hours; GBM12 and GBM6
# DOCK7 = assay: GEF activity of DOCK7 (Cdc42 G15A agarose pull down); type: cell-based, human; details: EGF, 24 hours; GBM12 and GBM6
# Method: To measure GEF activity of DOCK7, cell lysates were incubated with 40 μl Cdc42 G15A agarose beads (ab211185, Abcam) at 4° C. for 1 hour. The agarose beads were then washed boiled and the supernatants were used to immunoblot with DOCK7 antibody to determine levels of active DOCK7.
# Met = assay: Western blot of pMet and total Met; type: cell-based, human; details: HGF 20 ng/ml; GBM12 and GBM6
# Method: Whole protein extracts from cells or tumor tissues were analyzed by western blot as previously described (Altieri et al. (2015) Surg. Technol. Int 27: 297-302). Mayo PDX cells were serum starved overnight. Following treatment for specific time, cells were harvested and lysed. The human glioblastoma tissues were ground in liquid nitrogen and then were lysed. EGFR (06-847) antibody was from Millipore. DOCK7 was from Proteintech (Rosemont, Ill.). pEGFR (2236), STAT3 (12640), pSTAT3 (9145), cdc42(4376), and RhoA (4695) antibodies were from Cell Signaling Technology (Danvers, Mass.). TGFα antibody was from R&D system. BIN3 (sc-514396) and (3-Actin (sc-47778) were from Santa Cruz Biotechnology (Dallas, Tex.).
# Referring to FIG. 11A-E, HGF induces invasion in GBM12 and GBM6. […] Cells were seeded on Matrigel coated inserts for 24 hours in the absence or presence of HGF (20 ng/ml). A Western blot analysis of DOCK7 antibody immunoprecipitated extracts from GBM12 and GBM6 treated with HGF for 24 hours (20 ng/ml) is shown in FIG. 11C. A Western blot showing GTP-bound RhoA (RhoA-GTP) and total RhoA levels after HGF treatment for 24 hours in GBM12 and GBM6 is shown in FIG. 11D. A Western blot showing CDC42-GTP and total CDC42 levels after HGF treatment (20 ng/ml) for 24 hours in GBM12 and GBM6. The Western blot images are representative of three independent biological replicates. […]
# [3] = GBM12V tumors, tofacitinib 50 mg/kg, oral gavage
# [4] = orthotopic GBM39 with HBEGF silenced, tofacitinib treated
compound,measurement,setting,value
C[C@@H]1CCN(C(=O)CC#N)C[C@@H]1N(C)c1ncnc2[nH]ccc12 [tofacitinib],phosphorylation of STAT1,STAT1,blocks phosphorylation
same,HB-EGF in supernatant,HB-EGF,upregulates
same,phosphorylation of STAT3,STAT3,blocks phosphorylation
same,survival benefit,"[1]; GBM12TGFα tumors, tofacitinib 50 mg/kg, oral gavage",no additional benefit
same,survival,[1]; [3],significant improvement in survival
same,"tumor invasion (H&E, SMI-31)",[1]; [3],decreased invasion
same,infiltration of surrounding normal tissue,"[1]; GBM12 or GBM6 orthotopic model, 40 mg/kg/day for 3 weeks",do not infiltrate the surrounding normal tissue
same,survival,"[1]; GBM12 or GBM6 orthotopic model, 40 mg/kg/day for 3 weeks, from one week after intracranial injection",prolong survival
same,responsiveness of orthotopic tumors,[1]; GBM39 with HBEGF silenced vs. controls,more responsive
same,survival,[1]; [4],improved
same,tumor invasiveness,[1]; [4],less invasive
same,transcription factor activity,GBM12,upregulates multiple transcription factors
EGF: Recombinant human EGF (AF-100) from Peprotech; EGFR ligand,migration (scratch wound closure),GBM12 and GBM6 cells,suppressing migration
same,cell invasion,[2]; EGFR overexpressed in U87MG and U251MG,decreased invasion
same,cell invasion,[2]; U251MG and U87MG with low endogenous EGFR,increased invasiveness
same,invasion increased by inducible EGFRwt expression,"[2]; tetracycline induced EGFR overexpressing U251MG cells, plus EGF",abolished
same,BIN3 gene upregulation when EGF is added,glioma cells; EGFR overexpressing glioma cells,19.2 fold
same,EGR1 gene induction with ligand-activated EGFR signaling,glioma cells,13.68 fold
same,cell invasion,Mayo PDX cells,suppressed invasion
same,DOCK7 activity,DOCK7,decreased activity
HGF: the ligand for Met,Met phosphorylation,Met,increased
